Literature values, collected in patent US20100035992A1, “Methods and Compositions for Treating Inflammation and Inflammation-Related Pathologies” (priority 2008, published 2010).

Conditions: at 79° F.

## CS(C)(=O)=O [MSM, methylsulfonylmethane]
  water solubility: 34 % w/v
